Results: US20070249537A1, “ABSORPTION ENHANCING AGENTS” (Supernus Pharmaceuticals, Inc., priority 2003, published 2007)
Converted amounts (≈) assume the structure as drawn. Like-named read-outs stand apart in the source and are kept apart here. Marks after values point to notes of the source that are not given here. Blank lines part the entries; values can stand above or below the compound they belong to.

What was measured:
Caco-2 cell line [1] = type: in vitro ADME, human; settings: for Permeability Coefficient, Sampatrilat / Effect on sampatrilat permeation across the Caco-2 cell line: Caco-2
Description: (§1) The Caco-2 cell line is a well-recognized in vitro screening model, which both structurally and functionally represents the small intestinal epithelium. Caco-2 cells are derived from human colon carcinoma cells and differentiate in culture to form intestinal epithelia similar to that found in the small intestine. More specifically, Caco-2 cells form a brush border with normal enzymes, form tight junctions between cells, and acquire the barrier properties of an enterocyte sheet.
(§2) Permeability coefficients are determined as previously reported by Yazdania et.el (Yazdanian M, Glynn, S I, Wright J L, et al. 1998. Correlating partitioning and Caco-2 permeability of structurally diverse small molecular weight compounds. Pharm Res 15:1490-1494). Briefly, drug solutions were prepared in HBSS at a known final concentration. For AP to BL experiments, the solution was placed on the apical side of the cells and samples were taken from basolateral side. In contrast, for BL to AP experiments, the solution was placed on the basolateral side of the cells and samples were taken from apical side. The samples are analyzed by an HPLC. Transport rates (J) are determined by plotting cumulative amounts of drug permeated as a function of time. Apparent permeability coefficients Pcaco-2, are determined according to the equation Pcaco-2=J/ACi where Ci is the initial concentration of the solution in donor chamber and A is the surface area of the filter.
(§3) The original cell line integrity and the effect of excipients on the integrity of cell line were also tested by measuring the flux of ^14C-mannitol.

Caco-2 cells = experiment: Lactate dehydrogenase (LDH) assay after the permeation studies; type: cell-based, human
Description: In addition, a lactate dehydrogenase (LDH) assay was conducted after the permeation studies to evaluate the cytotoxicity of the absorption enhancers as well as to discover any violation of the integrity of the Caco-2 cells. LDH is a cytosolic enzyme that is not normally secreted outside the cell. However, it leaks into the culture medium upon damage to the cell membranes. In vitro release of LDH from cells provides an accurate measure of cell membrane integrity and cell viability. […] LDH leakage into the apical compartment of the Caco-2 cell system was used to measure the effect, if any, of a given absorption enhancer on the viability of the Caco-2 cells.

Caco-2 cell line [2] = type: in vitro ADME, human
Description: as §2, §3

Caco-2 cell line [3] = type: in vitro ADME, human; remark: listed apart in the source
Description: as §1, §2

in vitro = settings: human, Caco-2
Description: (§4) The effectiveness of N-methylated glycines as permeability enhancers was evaluated using mannitol as a control.

Caco-2 cell line [4] = settings: human
Description: as §4

[5] = in vivo; tablet dosage form; earlier studies; cited from earlier work
[6] = Aqueous solubility of sampatrilat; type: physicochemical
[7] = sampatrilat study, excipient 1% w/v (none for drug alone)
[8] = hydrochlorothiazide study 1, excipient 1% (none for drug alone)
[9] = hydrochlorothiazide study 5, excipient 5% w/v (none for drug alone)
[10] = mannitol study, first series, enhancer 1% (none for mannitol control)
[11] = hydrochlorothiazide study 2, excipient 1% (none for drug alone)
[12] = mannitol study, first series, enhancer 0.5%
[13] = hydrochlorothiazide study 3, excipient 1% (none for drug alone)

Compound: NCCCCCC(=O)O [Amino caproic acid]
Permeability Coefficient, Sampatrilat (Caco-2 cell line [1]): 0.48 10E−6 cm/s | Toxicity (Caco-2 cells; [7]): Yes | Permeability coefficient (mannitol) (Caco-2 cell line [2]): 1.07 10E−6 cm/s

Compound: NC(=O)NCCC[C@H](N)C(=O)O [Citrulline]
Permeability Coefficient, Sampatrilat (Caco-2 cell line [1]): 0.34 10E−6 cm/s | Toxicity (Caco-2 cells; [7]): Yes | Permeability coefficient (mannitol) (Caco-2 cell line [2]): 0.22 10E−6 cm/s

Compound: O=C1CCCCCCCCCCCCCCO1 [Cyclopentadecanolide, cyclopentadecanolide]
Toxicity (Caco-2 cells; [8]): No | Toxicity (Caco-2 cells; [9]): No | Permeability enhancement of hydrochlorothiazide (Caco-2 cell line [3]): low or no potency

Compound: CC1(C)[C@@H](O)CC[C@]2(C)[C@H]3C(=O)C=C4[C@@H]5C[C@@](C)(C(=O)O)CC[C@]5(C)CC[C@@]4(C)[C@]3(C)CC[C@@H]12 [Glycyrrehetinic acid, 18β-glycyrrhetinic acid, reference compound]
Toxicity (Caco-2 cells; [8]): No | Permeability enhancement of hydrochlorothiazide (Caco-2 cell line [3]): low or no potency

Compound: O=c1cc(CO)occ1O [Kojic acid]
Permeability Coefficient, Sampatrilat (Caco-2 cell line [1]): 0.49 10E−6 cm/s | Toxicity (Caco-2 cells; [7]): Yes | Permeability coefficient (mannitol) (Caco-2 cell line [2]): 1.63 10E−6 cm/s

Compound: O=C(O)C1=C[C@@H](O)[C@@H](O)[C@H](O)C1 [Shikimic acid, shikimic acid]
Toxicity (Caco-2 cells; [13]): No | Toxicity (Caco-2 cells; hydrochlorothiazide study 5, excipient 3% w/v): No | Toxicity (Caco-2 cells; [7]): No

Compound: C[N+](C)(C)CC(=O)O [betaine, trimethyl glycine]
Toxicity (Caco-2 cells; [10]): No

Further lines, with some results ahead:

Papp at 6.8 uM (in vitro): 1.24 ×10⁻⁶ cm/s | Enhancement ratio (Caco-2 cell line [4]; Caco-2): 1.0 | Enhancement ratio (Caco-2 cell line [4]; Caco-2, 1 %): 1.0 | Permeability coefficient (mannitol) (Caco-2 cell line [4]; Caco-2, 1 %): 0.93^a ×10^−6 cm/sec
Compound: OC[C@@H](O)[C@@H](O)[C@H](O)[C@H](O)CO [Mannitol, reference compound]
Toxicity (Caco-2 cells; [10]): No | Toxicity (Caco-2 cells; mannitol study, second series, 1% enhancer and 1% Tween 80 (none for mannitol control)): No

Effect on sampatrilat permeation across the Caco-2 cell line (Caco-2 cell line [1]): significantly increase | Permeability Coefficient, Sampatrilat (Caco-2 cell line [1]): 19.90 10E−6 cm/s | Increase of sampatrilat permeability over the drug alone (Caco-2 cell line [1]; human, Caco-2, 1 % w/v): 124 fold | Enhancement ratio (Caco-2 cell line [4]; Caco-2, 0.5 %): 9.9 | Enhancement ratio (Caco-2 cell line [4]; Caco-2, 1 %): 15.9 | Permeability coefficient (mannitol) (Caco-2 cell line [2]): 12.30 10E−6 cm/s | Permeability enhancement of hydrochlorothiazide (Caco-2 cell line [3]): demonstrated as permeability enhancers
Compound: CN(C)CC(=O)O [N,N-dimethylglycine]
Cytotoxicity relative to cells treated with Hank's balanced salt solution alone (Caco-2 cells): not cytotoxic | Toxicity (Caco-2 cells; [8]): No | Toxicity (Caco-2 cells; [11]): No | Toxicity (Caco-2 cells; hydrochlorothiazide study 4, excipient 1% (none for drug alone)): No | Toxicity (Caco-2 cells; [12]): No | Toxicity (Caco-2 cells; [10]): No | Toxicity (Caco-2 cells; [7]): No

Permeability enhancement of hydrochlorothiazide (Caco-2 cell line [3]): low or no potency
Compound: O=C(/C=C/C=C/c1ccc2c(c1)OCO2)N1CCCCC1 [Piperine, piperine]
Toxicity (Caco-2 cells; [11]): No | Toxicity (Caco-2 cells; [9]): Yes

solubility [6]: 1800 µg/mL (≈ 3.08 mM)
Compound: CS(=O)(=O)N[C@@H](CCCCN)C(=O)NC[C@H](CC1(C(=O)N[C@@H](Cc2ccc(O)cc2)C(=O)O)CCCC1)C(=O)O [Sampatrilat]
Oral bioavailability [5]: 2-5%

Effect on sampatrilat permeation across the Caco-2 cell line (Caco-2 cell line [1]): significantly increase | Permeability Coefficient, Sampatrilat (Caco-2 cell line [1]): 2.10 10E−6 cm/s | Permeability coefficient (mannitol) (Caco-2 cell line [2]): 7.50 10E−6 cm/s | Permeability coefficient (hydrochlorothiazide) (Caco-2 cell line [3]): 7.30 ×10^−6, cm/s | Permeability enhancement of hydrochlorothiazide (Caco-2 cell line [3]): demonstrated as permeability enhancers
Compound: O=C(O)CCCCCCCCC(=O)O [Sebacic acid, sebacic acid]
Cytotoxicity relative to cells treated with Hank's balanced salt solution alone (Caco-2 cells): not cytotoxic | Toxicity (Caco-2 cells; [13]): No | Toxicity (Caco-2 cells; [7]): No

Enhancement ratio (Caco-2 cell line [4]; Caco-2, 0.5 %): 0.9 | Permeability coefficient (mannitol) (Caco-2 cell line [4]; Caco-2, 0.5 %): 8.5e-07 cm/s | Enhancement ratio (Caco-2 cell line [4]; Caco-2, 1 %): 1.0 | Permeability coefficient (mannitol) (Caco-2 cell line [4]; Caco-2, 1 %): 9.3e-07 cm/s
Compound: NCC(=O)O [glycine]
Toxicity (Caco-2 cells; [12]): No | Toxicity (Caco-2 cells; [10]): No

Enhancement ratio (Caco-2 cell line [4]; Caco-2, 0.5 %): 1.8 | Permeability coefficient (mannitol) (Caco-2 cell line [4]; Caco-2, 0.5 %): 1.71e-06 cm/s | Enhancement ratio (Caco-2 cell line [4]; Caco-2, 1 %): 1.0 | Permeability coefficient (mannitol) (Caco-2 cell line [4]; Caco-2, 1 %): 8.9e-07 cm/s
Compound: CNCC(=O)O [sarcosine, methyl glycine]
Toxicity (Caco-2 cells; [12]): No | Toxicity (Caco-2 cells; [10]): No

Permeability coefficient (hydrochlorothiazide) (Caco-2 cell line [3]): 0.58 ×10^−6, cm/s | Permeability enhancement of hydrochlorothiazide (Caco-2 cell line [3]): low or no potency
Compound: Vitamin E TPGS [Vitamin E TGPS]
Toxicity (Caco-2 cells; [13]): No
